Converted amounts (≈) assume the structure as drawn.
Key:
[1] = system: M. tuberculosis (Mtb) H37Rv; assay: Microplate Alamar Blue Assay (MABA), GAS media, replicating Mtb; assay type: cell-based, Mycobacterium tuberculosis; conditions: Mycobacterium tuberculosis; GAS (glycerol-alanine-salt) media, replicating H37Rv; read-out: GAS media: replicating H37Rv Mtb: MIC 90
[2] = system: M. tuberculosis (Mtb) H37Rv; assay: Microplate Alamar Blue Assay (MABA), 7H12 media, replicating Mtb; assay type: cell-based; conditions: Mycobacterium tuberculosis, 7H12 media (no glycerol), read-out: 7H12 media: Replicating H37Rv Mtb: MIC 90
[3] = system: VERO kidney epithelial cells; assay: VERO toxicity assessment; conditions: Chlorocebus sabaeus, Vero, read-out: VERO: IC50

SMILES	MIC90 [1] [µM]	MIC90 [2] [µM]	IC50 [3] [µM]
COc1ccc(COC(=O)c2c(C)nc3sc(C)cn23)cc1 [ND-010050]	2 to 10	10 to 20 (≈ 3.16 to 6.33 µg/mL)	< 32
Cc1cn2c(C(=O)NCc3ccc(C(C)(C)C)cc3)c(C)nc2s1 [ND-020031]	< 2	< 2	< 32
Cc1cn2c(C(=O)NCc3ccc(F)cc3)c(C)nc2s1 [ND-020003]	< 2	2 to 10 (≈ 0.607 to 3.03 µg/mL)	< 32
Cc1cn2c(C(=O)NCc3ccc(N4CCCC4)cc3)c(C)nc2s1 [ND-020071]	< 2	< 2	20 to 32
Cc1nc2sc(Cl)cn2c1C(=O)NCc1ccc(C(F)(F)F)cc1 [ND-020012]	< 2	< 2	< 32
Cc1cn2c(C(=O)NCc3cccc(N4CCOCC4)n3)c(C)nc2s1 [ND-020036]	< 2	2 to 10 (≈ 0.743 to 3.71 µg/mL)	< 32
Cc1nc2sc(F)cn2c1C(=O)NCc1ccc2c(c1)OCC2 [ND-020061]	< 2	< 2	< 32
Cc1cn2c(C(=O)NCc3cccc(Cl)c3)c(C(F)(F)F)nc2s1 [ND-020014]	< 2	2 to 10 (≈ 0.748 to 3.74 µg/mL)	< 32
Cc1cn2c(C(=O)NCc3ccccc3Cl)c(C)nc2s1 [ND-020001]	< 2	< 2	< 32
Cc1cn2c(C(=O)NCc3cccc(N4CCN(c5ccc(F)cc5)CC4)c3)c(C)nc2s1 [ND-020047]	< 2	2 to 10 (≈ 0.927 to 4.64 µg/mL)	20 to 32
Cc1cn2c(C(=O)NCc3cccc(OC(C)C)c3)c(C)nc2s1 [ND-020030]	< 2	< 2	< 32
CCc1nc2sc(C)cn2c1C(=O)OC [ND-009743]	< 32	< 32	< 32
Cc1cn2c(C(=O)NCc3ccc4c(c3)OCC4)c(C)nc2s1 [ND-020018]	< 2	< 2	< 32
CCc1nc2sc(Cl)cn2c1C(=O)NCc1ccc(Oc2ccc(Cl)cc2)cc1 [ND-020053]	< 2	< 2	20 to 32
Cc1cn2c(C(=O)NCc3cccc(F)c3)c(C)nc2s1 [ND-009762]	< 2	< 2	< 32
CC1=Nn2c(nc(C)c2C(=O)NCc2ccc(Oc3ccc(F)cc3)cc2)C1 [ND-020050]	< 2	2 to 10 (≈ 0.757 to 3.78 µg/mL)	20 to 32

SMILES	MIC90 [1] [µM]	MIC90 [2] [µM]	IC50 [3] [µM]
Cc1cn2c(C(=O)NCCc3ccc(Cl)cc3)c(C)nc2s1 [ND-020081]	< 2	< 2	< 32
Cc1cn2c(C(=O)NCc3ccc(F)c(N4CCOCC4)c3)c(C)nc2s1 [ND-020076]	< 2	< 2	< 32
Cc1cn2c(C(=O)NCc3cccc(OC(F)(F)F)c3)c(C)nc2s1 [ND-020007]	< 2	< 2	< 32
Cc1cn2c(C(=O)NCc3ccc(N4CCOCC4)c(F)c3)c(C)nc2s1 [ND-020034]	< 2	2 to 10 (≈ 0.777 to 3.88 µg/mL)	< 32
Cc1cn2c(C(=O)NCc3cccc(N4CCC(=O)CC4)c3)c(C)nc2s1 [ND-020072]	< 2	< 2	< 32
CCOc1cccc(CNC(=O)c2c(C)nc3sc(C)cn23)c1 [ND-020029]	< 2	< 2	< 32
CCc1nc2sc(C)cn2c1C(=O)NCc1ccc(N2CCN(c3ccc(F)cc3)CC2)cc1 [ND-020048]	< 2	< 2	10 to 20
Cc1nn2c(C(=O)OCc3ccccc3)c(C)nc2s1 [ND-010475]	< 2	10 to 20 (≈ 2.87 to 5.75 µg/mL)	< 32
COc1cccc(CNC(=O)c2c(C)nc3sc(C)cn23)c1 [ND-009763]	< 2	< 2	< 32
Cc1cn2c(C(=O)NCc3cccc(Oc4ccc(C(F)(F)F)cc4)c3)c(C)nc2s1 [ND-020057]	< 2	< 2	< 32
Cc1nc2sc(C(F)(F)F)cn2c1C(=O)NCc1ccc2c(c1)OCC2 [ND-020063]	< 2	2 to 10 (≈ 0.763 to 3.81 µg/mL)	< 32
Cc1cn2c(C(=O)Nc3ccc(Oc4ccc(C(F)(F)F)cc4)cc3)c(C)nc2s1 [ND-020040]	< 2	< 2	< 32
Cc1cn2c(C(=O)NCc3ccc(C(F)(F)F)cc3)c(C)nc2s1 [ND-020009]	< 2	< 2	< 32
Cc1nc2sc(F)cn2c1C(=O)NCc1cccc(Cl)c1 [ND-020056]	< 2	2 to 10 (≈ 0.648 to 3.24 µg/mL)	< 32
Cc1cn2c(C(=O)NCc3ccc(N4CC(C)CC(C)C4)cc3)c(C)nc2s1 (stereo not drawn) [ND-020069]	< 2	< 2	20 to 32

Reference: patent US9605002B2, “5,5-heteroaromatic anti-infective compounds” (priority 2012, dated 2017)
